# In patent US8680159B2, “Bradykinin 1 receptor modulating compounds” (Gruenenthal GmbH, priority 2010, dated 2014):
# Like-named read-outs stand apart in the source and are kept apart here.
# Assays:
# [1] = molecular target: T1, B1R receptor of the rat (CHO K1 cells stably transfected with the B1R gene of the rat) (Rattus norvegicus, UniProt P97583); assay: Functional study on the bradykinin receptor 1 (B1R), Ca2+ fluorescence (Fluo-4) FLIPR/Novostar assay, rB1R cells; format: cell-based; details: for inhibition at 10 µM: CHO-K1, 10 μM
# T1 construct: expressed in transfected cells; host or cells: CHO K1 cells (Chinese hamster ovary), stably transfected
# T1 sequence (P97583 1-337): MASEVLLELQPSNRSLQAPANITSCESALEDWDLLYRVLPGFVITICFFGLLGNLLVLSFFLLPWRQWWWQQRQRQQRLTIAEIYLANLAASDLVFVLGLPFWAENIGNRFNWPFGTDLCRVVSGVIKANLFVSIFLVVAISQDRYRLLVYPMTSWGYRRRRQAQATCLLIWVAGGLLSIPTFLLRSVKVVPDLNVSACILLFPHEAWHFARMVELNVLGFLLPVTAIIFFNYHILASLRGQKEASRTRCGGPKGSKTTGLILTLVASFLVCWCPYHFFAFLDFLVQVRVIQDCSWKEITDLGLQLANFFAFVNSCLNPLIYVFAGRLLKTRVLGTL
# Method in brief: (§1)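 Test compounds (10 μM) were added first and the Ca2+ rise was scored as % activation against Lys-Des-Arg9-bradykinin (≥50 nM, human) or Des-Arg9-bradykinin (≥1 μM, rat). After 6-20 min, the matching agonist was given at its EC80, and % inhibition relative to maximal achievable inhibition was calculated.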
# [2] = molecular target: T2, human B1R receptor (CHO K1 cells stably transfected with the human B1R gene) (Homo sapiens, UniProt P46663); assay: Functional study on the bradykinin receptor 1 (B1R), Ca2+ fluorescence (Fluo-4) FLIPR/Novostar assay, hB1R cells; format: cell-based
# T2 construct: expressed in transfected cells; host or cells: CHO K1 cells (Chinese hamster ovary), stably transfected
# T2 sequence (P46663 1-353): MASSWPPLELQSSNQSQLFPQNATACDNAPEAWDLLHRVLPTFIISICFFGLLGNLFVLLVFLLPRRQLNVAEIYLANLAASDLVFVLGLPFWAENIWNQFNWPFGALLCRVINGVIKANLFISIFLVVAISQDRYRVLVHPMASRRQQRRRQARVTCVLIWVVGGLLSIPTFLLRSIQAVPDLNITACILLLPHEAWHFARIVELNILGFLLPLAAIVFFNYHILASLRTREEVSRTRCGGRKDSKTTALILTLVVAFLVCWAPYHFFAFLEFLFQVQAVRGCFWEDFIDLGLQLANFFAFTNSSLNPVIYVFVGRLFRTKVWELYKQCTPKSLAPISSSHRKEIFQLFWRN
# Method in brief: as §1
# [3] = read-out: % inhibition (rat B1R) at 10 μM
# [4] = CHO-K1, read-out: % inhibition (human B1R) at 10 μM
Structure (SMILES),"inhibition at 10 µM [1, 3] [%]","inhibition at 10 µM [2, 4] [%]",other results
"CN(C(=O)c1ccc2c(c1)C(N(C)C(=O)CCC1CCCC1)CC2)C1CCN(c2ccncc2)CC1 (centres unmarked) [CC_H-70, 3-(3-Cyclopentyl-propanoyl-methyl-amino)-N-methyl-N-(1-pyridin-4-yl-piperidin-4-yl)-2,3-dihydro-1H-indene-5-carboxylic acid amide]",–,–,"inhibition at 10 µM ([1]; read-out: % Inhibition (r-B1R) at 10 μM): 103%; inhibition at 10 µM ([2]; CHO-K1, read-out: % Inhibition (h-B1R) at 10 μM): 100%"
"O=C(NCCC1CCN(c2ccncc2)CC1)c1ccc2c(c1)C(NC(=O)c1ccccc1Cl)CC2 (centres unmarked) [Example H-01, 3-[(2-Chloro-benzoyl)amino]-N-[2-(1-pyridin-4-yl-piperidin-4-yl)-ethyl]-2,3-dihydro-1H-indene-5-carboxylic acid amide]",102,100,–
"O=C(NCC1CCN(c2ccncc2)CC1)c1ccc2c(c1)[C@H](NC(=O)c1ccccc1Cl)CC2 [Example H-03, (3R)-3-[(2-Chloro-benzoyl)amino]-N-[(1-pyridin-4-yl-piperidin-4-yl)-methyl]-2,3-dihydro-1H-indene-5-carboxylic acid amide]",108,15,–
"O=C(NC1CCN(c2ccc(C(F)(F)F)cn2)C1)c1ccc2c(c1)[C@H](NC(=O)c1ccccc1Cl)CC2 (stereo partly drawn) [Example H-04, (3R)-3-[(2-Chloro-benzoyl)amino]-N-[1-[5-(trifluoromethyl)-pyridin-2-yl]-pyrrolidin-3-yl]-2,3-dihydro-1H-indene-5-carboxylic acid amide]",47,21,–
"CN(C(=O)c1ccc2c(c1)[C@H](NC(=O)c1ccccc1Cl)CC2)C1CCN(c2ccncc2)CC1 [Example H-06, (3R)-3-[(2-Chloro-benzoyl)amino]-N-methyl-N-(1-pyridin-4-yl-piperidin-4-yl)-2,3-dihydro-1H-indene-5-carboxylic acid amide]",102,100,–
"O=C(NC1CCN(c2ccncc2)CC1)c1ccc2c(c1)[C@H](NC(=O)c1ccccc1Cl)CC2 [Example H-07, (3R)-3-[(2-Chloro-benzoyl)amino]-N-(1-pyridin-4-yl-piperidin-4-yl)-2,3-dihydro-1H-indene-5-carboxylic acid amide]",96,43,–
"O=C(N[C@H]1CCN(C2CCN(C3CC3)CC2)C1)c1ccc2c(c1)[C@H](NC(=O)c1ccccc1Cl)CC2 [Example H-09, (3R)-3-[(2-Chloro-benzoyl)amino]-N-[(3S)-1-(1-cyclopropyl-piperidin-4-yl)-pyrrolidin-3-yl]-2,3-dihydro-1H-indene-5-carboxylic acid amide]",83,38,–
"O=C(NCC1CCCN(c2ccncc2)C1)c1ccc2c(c1)[C@H](NC(=O)c1ccccc1Cl)CC2 (stereo partly drawn) [Example H-10, (3R)-3-[(2-Chloro-benzoyl)amino]-N-[(1-pyridin-4-yl-piperidin-3-yl)-methyl]-2,3-dihydro-1H-indene-5-carboxylic acid amide]",97,18,–
"CN(C(=O)c1ccc2c(c1)CC[C@H]2N1Cc2cccc(Cl)c2C1=O)C1CCN(c2ccncc2)CC1 [Example H-11, (1R)-1-(4-Chloro-3-oxo-1,2-dihydro-isoindol-2-yl)-N-methyl-N-(1-pyridin-4-yl-piperidin-4-yl)-2,3-dihydro-1H-indene-5-carboxylic acid amide]",49,99,–
"CN(C(=O)c1ccc2c(c1)[C@H](N1Cc3cccc(Cl)c3C1=O)CC2)C1CCN(c2ccncc2)CC1 [Example H-12, (3R)-3-(4-Chloro-3-oxo-1,2-dihydro-isoindol-2-yl)-N-methyl-N-(1-pyridin-4-yl-piperidin-4-yl)-2,3-dihydro-1H-indene-5-carboxylic acid amide]",100,100,–
"CN1CCN(C2CCC(NC(=O)c3ccc4c(c3)[C@H](NC(=O)c3ccccc3Cl)CC4)C(C)(C)C2)CC1 (stereo partly drawn) [Example H-14, (3R)-3-[(2-Chloro-benzoyl)amino]-N-[2,2-dimethyl-4-(4-methyl-piperazin-l-yl)-cyclohexyl]-2,3-dihydro-1H-indene-5-carboxylic acid amide]",–,–,% inhibition (rat B1R) at 10 μM ([1]; 10 μM): 76%; % inhibition (human B1R) at 10 μM [2]: 64%
"O=C(NCCC1CCN(c2ccncc2)CC1)c1ccc2c(c1)[C@H](NC(=O)c1ccccc1Cl)CC2 [Example H-15, (3R)-3-[(2-Chloro-benzoyl)amino]-N-[2-(1-pyridin-4-yl-piperidin-4-yl)-ethyl]-2,3-dihydro-1H-indene-5-carboxylic acid amide]",99,100,–
"CN(C(=O)c1ccc2c(c1)CC[C@H]2NS(=O)(=O)c1ccccc1Cl)C1CCN(c2ccncc2)CC1 [Example H-16, (1R)-1-[[(2-Chlorophenyl)sulfonyl]amino]-N-methyl-N-(1-pyridin-4-yl-piperidin-4-yl)-2,3-dihydro-1H-indene-5-carboxylic acid amide]",92,100,–
"CN(C(=O)c1ccc2c(c1)CC[C@H]2NC(=O)c1ccccc1Cl)C1CCN(c2ccncc2)CC1 [Example H-17, (1R)-1-[(2-Chloro-benzoyl)amino]-N-methyl-N-(1-pyridin-4-yl-piperidin-4-yl)-2,3-dihydro-1H-indene-5-carboxylic acid amide]",77,100,–
"CN(C(=O)c1ccc2c(c1)[C@H](NC(=O)C1CCC1)CC2)C1CCN(c2ccncc2)CC1 [Example H-18, (3R)-3-(Cyclobutanecarbonylamino)-N-methyl-N-(1-pyridin-4-yl-piperidin-4-yl)-2,3-dihydro-1H-indene-5-carboxylic acid amide]",102,100,–
"CN(C(=O)c1ccc2c(c1)[C@H](NC(=O)C(C)(C)C)CC2)C1CCN(c2ccncc2)CC1 [Example H-19, (3R)-3-(2,2-Dimethyl-propanoylamino)-N-methyl-N-(1-pyridin-4-yl-piperidin-4-yl)-2,3-dihydro-1H-indene-5-carboxylic acid amide]",103,98,–
"CN(C(=O)c1ccc2c(c1)[C@H](NC(=O)c1ccccc1Cl)CCO2)C1CCN(c2ccncc2)CC1 [Example H-20, (4R)-4-[(2-Chloro-benzoyl)amino]-N-methyl-N-(1-pyridin-4-yl-piperidin-4-yl)-3,4-dihydro-2H-chromene-6-carboxylic acid amide]",103,100,–
"CN(C(=O)c1ccc2c(c1)[C@@H](NC(=O)c1ccccc1Cl)CC2)C1CCN(c2ccncc2)CC1 [Example H-21, (3S)-3-[(2-Chloro-benzoyl)amino]-N-methyl-N-(1-pyridin-4-yl-piperidin-4-yl)-2,3-dihydro-1H-indene-5-carboxylic acid amide]",105,99,–
"CN(C(=O)c1ccc2c(c1)[C@H](NC(=O)c1cnn3cccnc13)CC2)C1CCN(c2ccncc2)CC1 [Example H-22, N-[(1R)-6-[Methyl-(1-pyridin-4-yl-piperidin-4-yl)-carbamoyl]-2,3-dihydro-1H-indene-1-yl]-pyrazolo[1,5-a]pyrimidine-3-carboxylic acid amide]",87,100,–
"CN(C(=O)c1ccc2c(c1)[C@H](NC(=O)c1ccccc1Cl)CC2)C1CCN(c2ccccn2)CC1 [Example H-23, (3R)-3-[(2-Chloro-benzoyl)amino]-N-methyl-N-(1-pyridin-2-yl-piperidin-4-yl)-2,3-dihydro-1H-indene-5-carboxylic acid amide]",93,97,–
"CN(C(=O)c1ccc2c(c1)[C@H](NC(=O)c1cccc(C(F)(F)F)c1Cl)CC2)C1CCN(c2ccncc2)CC1 [Example H-24, (3R)-3-[[2-Chloro-3-(trifluoromethyl)-benzoyl]amino]-N-methyl-N-(1-pyridin-4-yl-piperidin-4-yl)-2,3-dihydro-1H-indene-5-carboxylic acid amide]",98,100,–
"CN(C(=O)c1ccc2c(c1)[C@H](NC(=O)Cc1ccccc1)CC2)C1CCN(c2ccncc2)CC1 [Example H-25, (3R)-N-Methyl-3-[(2-phenyl-acetyl)amino]-N-(1-pyridin-4-yl-piperidin-4-yl)-2,3-dihydro-1H-indene-5-carboxylic acid amide]",96,100,–
